How the values were obtained:
Plasmodium berghei [1] = experiment: Antiplasmodial activity against liver stage of Plasmodium berghei sporozoites expressing firefly luciferase infected in human Huh7 cells assessed as inhibition of parasite development treated 1 hr prior to infection followed by compound replenisment at 24 hrs post-infection measured 48 hrs after infection by bioluminescence analysis; assay type: functional, organism-based; conditions: Huh-7, Liver
Plasmodium falciparum = experiment: Antiplasmodial activity against erythrocyte stage of Plasmodium falciparum W2 assessed as growth inhibition after 48 hrs by flow cytometry; assay type: functional, organism-based; conditions: W2, 48 h
Plasmodium berghei [2] = experiment: Ratio of primaquine IC50 to compound IC50 against liver stage of Plasmodium berghei sporozoites expressing firefly luciferase infected in human Huh7 cells; assay type: functional, Huh-7
[3] = Cytotoxicity against human HuH7 cells assessed as cell viability by alamarblue assay; assay type: cell-based; conditions: huh-7

| SMILES | IC50 (Plasmodium berghei [1]) [µM] | IC50 (Plasmodium falciparum) [µM] | Ratio IC50 (Plasmodium berghei [2]) | Activity [3] |
| --- | --- | --- | --- | --- |
| COc1cc(NC(C)CCCNC(=O)/C=C/c2ccc(F)cc2)c2ncccc2c1 (centres undefined) | 2.33 | ≥ 10 | >2 | Non-toxic |
| COc1cc(NC(C)CCCNC(=O)/C=C/c2ccc(C)cc2)c2ncccc2c1 (centres undefined) | 2.13 | ≥ 10 | >2 | Non-toxic |
| COc1cc(NC(C)CCCNC(=O)/C=C/c2ccc([N+](=O)[O-])cc2)c2ncccc2c1 (centres undefined) | 2.24 | ≥ 10 | >2 | Non-toxic |
| COc1cc(NC(C)CCCNC(=O)/C=C/c2ccc(C(C)C)cc2)c2ncccc2c1 (centres undefined) | 1.54 | 4.84 | >2 | Non-toxic |
| COc1cc(NC(C)CCCNC(=O)/C=C/c2ccccc2[N+](=O)[O-])c2ncccc2c1 (centres undefined) | 2.36 | ≥ 10 | >2 | Non-toxic |
| COc1cc(NC(C)CCCNC(=O)/C=C/c2cccc(F)c2)c2ncccc2c1 (centres undefined) | 1.63 | ≥ 10 | >2 | Non-toxic |
| COc1cc(NC(C)CCCNC(=O)/C=C/c2ccc(Cl)cc2)c2ncccc2c1 (centres undefined) | 2.39 | ≥ 10 | >2 | Non-toxic |
| COc1ccc(/C=C/C(=O)NCCCC(C)Nc2cc(OC)cc3cccnc23)cc1 (centres undefined) | – | ≥ 10 | >2 | Non-toxic |
| COc1cc(NC(C)CCCNC(=O)/C=C/c2ccccc2)c2ncccc2c1 (centres undefined) | 2.01 | ≥ 10 | >2 | Non-toxic |
| COc1cc(NC(C)CCCNC(=O)/C=C/c2cccc([N+](=O)[O-])c2)c2ncccc2c1 (centres undefined) | 2.12 | ≥ 10 | >2 | Non-toxic |
| COc1cc(NC(C)CCCNC(=O)/C=C/c2ccc(Br)cc2)c2ncccc2c1 (centres undefined) | 1.38 | ≥ 10 | >2 | Non-toxic |
| C[C@@H]1CC[C@H]2[C@@H](C)C(=O)O[C@@H]3O[C@@]4(C)CC[C@@H]1[C@]32OO4 [ARTEMISININ] | – | 0.00564 | – | – |
